Test results reported in patent publication US9487516B2, “Antibacterial oxadiazolone derivatives” (priority 2013, dated 2016).
In brackets after ≈: the same amount, converted by molar mass.

Tests used:
Test in all cases: Bacterial growth minimal inhibitory concentration (microdilution, cation-adjusted Mueller-Hinton Broth)
Format in all cases: cell-based
[1] = system: Acinetobacter baumanii T6474; conditions: Acinetobacter baumannii, multiply-resistant strain (in particular quinolone-resistant)
Protocol: (§1) Minimal Inhibitory Concentrations (MICs; mg/L) were determined in cation-adjusted MuellerHinton Broth by a microdilution method following the description given in “Methods for Dilution Antimicrobial Susceptibility Tests for Bacteria that Grow Aerobically”, Approved standard, 7th ed., Clinical and Laboratory Standards Institute (CLSI) Document M7-A7, Wayne, Pa., USA, 2006.
(§2) All Example compounds were tested against several Gram positive and Gram negative bacteria. […] Staphylococcus aureus A798, Enterococcus faecium A949 and Acinetobacter baumanii T6474 are multiply-resistant strains (in particular quinolone-resistant), while Moraxella catarrhalis A894 is a quinolone-sensitive strain and Staphylococcus aureus ATCC29213 is a methicillin-sensitive and quinolone-sensitive strain.

[2] = system: Enterococcus faecium A949; conditions: multiply-resistant strain (in particular quinolone-resistant), read-out: MIC for E. faecium A949
Protocol: as §1, §2

[3] = system: Moraxella catarrhalis A894; conditions: quinolone-sensitive strain
Protocol: as §1, §2

[4] = system: Staphylococcus aureus A798; conditions: multiply-resistant strain (in particular quinolone-resistant), read-out: MIC for S. aureus A798
Protocol: as §1, §2

[5] = system: Staphylococcus aureus ATCC29213; conditions: methicillin-sensitive and quinolone-sensitive strain, read-out: MIC for S. aureus ATCC29213
Protocol: as §1, §2

SMILES	MIC [1]	MIC [2]	MIC [3]	MIC [4]	MIC [5]
O=C1CSc2ccc(-n3nc(CCCN[C@@H]4Cn5c(=O)cnc6ccc(F)c4c65)oc3=O)cc2N1 [Example 20, (S)-7-fluoro-6-{3-[5-oxo-4-(3-oxo-3,4-dihydro-2H-benzo[1,4]-thiazin-6-yl)-4,5-dihydro-[1,3,4]oxadiazol-2-yl]-propylamino}-5,6-dihydro-pyrrolo[1,2,3-de]quinoxalin-3-one]	≤ 0.016 µg/mL	0.25 µg/mL (≈ 0.506 µM)	0.063 µg/mL (≈ 0.127 µM)	≤ 0.016 µg/mL	≤ 0.016 µg/mL
O=C1CSc2ccc(-n3nc(CCCN[C@H]4Cn5c(=O)cnc6ccc(F)c4c65)oc3=O)cc2N1 [Example 21, (R)-7-fluoro-6-{3-[5-oxo-4-(3-oxo-3,4-dihydro-2H-benzo[1,4]-thiazin-6-yl)-4,5-dihydro-[1,3,4]oxadiazol-2-yl]-propylamino}-5,6-dihydro-pyrrolo[1,2,3-de]quinoxalin-3-one]	≤ 0.016 µg/mL	0.25 µg/mL (≈ 0.506 µM)	0.063 µg/mL (≈ 0.127 µM)	≤ 0.016 µg/mL	≤ 0.016 µg/mL
O=c1oc(CCCN[C@@H]2Cn3c(=O)ccc4ccc(F)c2c43)nn1-c1ccc2c(c1)OCCO2 [Example 22, (S)-1-{3-[4-(2,3-dihydro-benzo[1,4]dioxin-6-yl)-5-oxo-4,5-dihydro-[1,3,4]oxadiazol-2-yl]-propylamino}-9-fluoro-1,2-dihydro-pyrrolo[3,2,1-ij]quinolin-4-one]	8 µg/mL (≈ 17.2 µM)	> 8 µg/mL	4 µg/mL (≈ 8.61 µM)	> 8 µg/mL	4 µg/mL (≈ 8.61 µM)
O=c1oc(CCCN[C@H]2Cn3c(=O)ccc4ccc(F)c2c43)nn1-c1ccc2c(c1)OCCO2 [Example 23, (R)-1-{3-[4-(2,3-dihydro-benzo[1,4]dioxin-6-yl)-5-oxo-4,5-dihydro-[1,3,4]oxadiazol-2-yl]-propylamino}-9-fluoro-1,2-dihydro-pyrrolo[3,2,1-ij]quinolin-4-one]	> 8 µg/mL	> 8 µg/mL	4 µg/mL (≈ 8.61 µM)	8 µg/mL (≈ 17.2 µM)	4 µg/mL (≈ 8.61 µM)
CCCc1ccc(-n2nc(CCCN[C@H]3Cn4c(=O)ccc5ccc(F)c3c54)oc2=O)cc1 [Example 26, (R)-9-fluoro-1-{3-[5-oxo-4-(4-propyl-phenyl)-4,5-dihydro-[1,3,4]oxadiazol-2-yl]-propylamino}-1,2-dihydro-pyrrolo[3,2,1-ij]quinolin-4-one]	2 µg/mL (≈ 4.46 µM)	0.5 µg/mL (≈ 1.11 µM)	0.5 µg/mL (≈ 1.11 µM)	0.5 µg/mL (≈ 1.11 µM)	0.125 µg/mL (≈ 0.279 µM)
CCCc1ccc(-n2nc(CCCN[C@@H]3Cn4c(=O)cnc5ccc(F)c3c54)oc2=O)cc1 [Example 27, (S)-7-fluoro-6-{3-[5-oxo-4-(4-propyl-phenyl)-4,5-dihydro-[1,3,4]oxadiazol-2-yl]-propylamino}-5,6-dihydro-pyrrolo[1,2,3-de]quinoxalin-3-one]	4 µg/mL (≈ 8.9 µM)	2 µg/mL (≈ 4.45 µM)	4 µg/mL (≈ 8.9 µM)	2 µg/mL (≈ 4.45 µM)	0.5 µg/mL (≈ 1.11 µM)
CCOc1ccc(-n2nc(CCCN[C@H]3Cn4c(=O)cnc5ccc(F)c3c54)oc2=O)cc1 [Example 31, (R)-6-{3-[4-(4-ethoxy-phenyl)-5-oxo-4,5-dihydro-[1,3,4]oxadiazol-2-yl]-propylamino}-7-fluoro-5,6-dihydro-pyrrolo[1,2,3-de]quinoxalin-3-one]	8 µg/mL (≈ 17.7 µM)	> 8 µg/mL	8 µg/mL (≈ 17.7 µM)	4 µg/mL (≈ 8.86 µM)	1 µg/mL (≈ 2.22 µM)
CCSc1ccc(-n2nc(CCCN[C@H]3Cn4c(=O)ccc5ccc(F)c3c54)oc2=O)cc1 [Example 32, (R)-1-{3-[4-(4-ethylsulfanyl-phenyl)-5-oxo-4,5-dihydro-[1,3,4]oxadiazol-2-yl]-propylamino}-9-fluoro-1,2-dihydro-pyrrolo[3,2,1-ij]quinolin-4-one]	0.5 µg/mL (≈ 1.07 µM)	0.5 µg/mL (≈ 1.07 µM)	0.5 µg/mL (≈ 1.07 µM)	0.25 µg/mL (≈ 0.536 µM)	0.063 µg/mL (≈ 0.135 µM)
CCSc1ccc(-n2nc(CCCN[C@@H]3Cn4c(=O)cnc5ccc(F)c3c54)oc2=O)cc1 [Example 33, (S)-6-{3-[4-(4-ethylsulfanyl-phenyl)-5-oxo-4,5-dihydro-[1,3,4]oxadiazol-2-yl]-propylamino}-7-fluoro-5,6-dihydro-pyrrolo[1,2,3-de]quinoxalin-3-one]	0.25 µg/mL (≈ 0.535 µM)	0.5 µg/mL (≈ 1.07 µM)	0.5 µg/mL (≈ 1.07 µM)	0.25 µg/mL (≈ 0.535 µM)	0.031 µg/mL (≈ 0.0663 µM)
O=C1COc2ccc(-n3nc(CCCN[C@@H]4Cn5c(=O)ccc6cccc4c65)oc3=O)nc2N1 [Example 34, (S)-1-{3-[5-oxo-4-(3-oxo-3,4-dihydro-2H-pyrido[3,2-b][1,4]oxazin-6-yl)-4,5-dihydro-[1,3,4]oxadiazol-2-yl]-propylamino}-1,2-dihydro-pyrrolo[3,2,1-ij]quinolin-4-one]	4 µg/mL (≈ 8.69 µM)	8 µg/mL (≈ 17.4 µM)	1 µg/mL (≈ 2.17 µM)	4 µg/mL (≈ 8.69 µM)	2 µg/mL (≈ 4.34 µM)
O=C1COc2ccc(-n3nc(CCCN[C@H]4Cn5c(=O)cnc6cccc4c65)oc3=O)nc2N1 [Example 36, (R)-6-{3-[5-oxo-4-(3-oxo-3,4-dihydro-2H-pyrido[3,2-b][1,4]oxazin-6-yl)-4,5-dihydro-[1,3,4]oxadiazol-2-yl]-propylamino}-5,6-dihydro-pyrrolo[1,2,3-de]quinoxalin-3-one]	4 µg/mL (≈ 8.67 µM)	8 µg/mL (≈ 17.3 µM)	2 µg/mL (≈ 4.33 µM)	4 µg/mL (≈ 8.67 µM)	4 µg/mL (≈ 8.67 µM)
O=C1COc2ccc(-n3nc(CCCN[C@H]4Cn5c(=O)ccc6ncc(F)c4c65)oc3=O)nc2N1 [Example 38, (R)-3-fluoro-4-{3-[5-oxo-4-(3-oxo-3,4-dihydro-2H-pyrido[3,2-b][1,4]oxazin-6-yl)-4,5-dihydro-[1,3,4]oxadiazol-2-yl]-propylamino}-4,5-dihydro-pyrrolo[3,2,1-de][1,5]naphthyridin-7-one]	2 µg/mL (≈ 4.17 µM)	4 µg/mL (≈ 8.34 µM)	0.5 µg/mL (≈ 1.04 µM)	0.5 µg/mL (≈ 1.04 µM)	0.5 µg/mL (≈ 1.04 µM)
COc1ccc2ccc(=O)n3c2c1[C@H](NCCCc1nn(-c2ccc4c(n2)NC(=O)CO4)c(=O)o1)C3 [Example 39, (S)-9-methoxy-1-{3-[5-oxo-4-(3-oxo-3,4-dihydro-2H-pyrido[3,2-b][1,4]oxazin-6-yl)-4,5-dihydro-[1,3,4]oxadiazol-2-yl]-propylamino}-1,2-dihydro-pyrrolo[3,2,1-ij]quinolin-4-one]	1 µg/mL (≈ 2.04 µM)	8 µg/mL (≈ 16.3 µM)	1 µg/mL (≈ 2.04 µM)	2 µg/mL (≈ 4.08 µM)	1 µg/mL (≈ 2.04 µM)

Further lines, results first:

MIC [1]	MIC [2]	MIC [3]	MIC [4]	MIC [5]	SMILES
4 µg/mL (≈ 8.59 µM)	> 8 µg/mL	4 µg/mL (≈ 8.59 µM)	8 µg/mL (≈ 17.2 µM)	2 µg/mL (≈ 4.3 µM)	O=c1oc(CCCN[C@@H]2Cn3c(=O)cnc4ccc(F)c2c43)nn1-c1ccc2c(c1)OCCO2 [Example 24, (S)-6-{3-[4-(2,3-dihydro-benzo[1,4]dioxin-6-yl)-5-oxo-4,5-dihydro-[1,3,4]oxadiazol-2-yl]-propylamino}-7-fluoro-5,6-dihydro-pyrrolo[1,2,3-de]quinoxalin-3-one]
8 µg/mL (≈ 17.2 µM)	8 µg/mL (≈ 17.2 µM)	8 µg/mL (≈ 17.2 µM)	4 µg/mL (≈ 8.59 µM)	2 µg/mL (≈ 4.3 µM)	O=c1oc(CCCN[C@H]2Cn3c(=O)cnc4ccc(F)c2c43)nn1-c1ccc2c(c1)OCCO2 [Example 25, (R)-6-{3-[4-(2,3-dihydro-benzo[1,4]dioxin-6-yl)-5-oxo-4,5-dihydro-[1,3,4]oxadiazol-2-yl]-propylamino}-7-fluoro-5,6-dihydro-pyrrolo[1,2,3-de]quinoxalin-3-one]
4 µg/mL (≈ 8.88 µM)	> 8 µg/mL	8 µg/mL (≈ 17.8 µM)	4 µg/mL (≈ 8.88 µM)	2 µg/mL (≈ 4.44 µM)	CCOc1ccc(-n2nc(CCCN[C@@H]3Cn4c(=O)ccc5ccc(F)c3c54)oc2=O)cc1 [Example 28, (S)-1-{3-[4-(4-ethoxy-phenyl)-5-oxo-4,5-dihydro-[1,3,4]oxadiazol-2-yl]-propylamino}-9-fluoro-1,2-dihydro-pyrrolo[3,2,1-ij]quinolin-4-one]
4 µg/mL (≈ 8.88 µM)	> 8 µg/mL	8 µg/mL (≈ 17.8 µM)	4 µg/mL (≈ 8.88 µM)	2 µg/mL (≈ 4.44 µM)	CCOc1ccc(-n2nc(CCCN[C@H]3Cn4c(=O)ccc5ccc(F)c3c54)oc2=O)cc1 [Example 29, (R)-1-{3-[4-(4-ethoxy-phenyl)-5-oxo-4,5-dihydro-[1,3,4]oxadiazol-2-yl]-propylamino}-9-fluoro-1,2-dihydro-pyrrolo[3,2,1-ij]quinolin-4-one]
4 µg/mL (≈ 8.86 µM)	8 µg/mL (≈ 17.7 µM)	8 µg/mL (≈ 17.7 µM)	4 µg/mL (≈ 8.86 µM)	1 µg/mL (≈ 2.22 µM)	CCOc1ccc(-n2nc(CCCN[C@@H]3Cn4c(=O)cnc5ccc(F)c3c54)oc2=O)cc1 [Example 30, (S)-6-{3-[4-(4-ethoxy-phenyl)-5-oxo-4,5-dihydro-[1,3,4]oxadiazol-2-yl]-propylamino}-7-fluoro-5,6-dihydro-pyrrolo[1,2,3-de]quinoxalin-3-one]
2 µg/mL (≈ 4.33 µM)	4 µg/mL (≈ 8.67 µM)	0.5 µg/mL (≈ 1.08 µM)	1 µg/mL (≈ 2.17 µM)	0.5 µg/mL (≈ 1.08 µM)	O=C1COc2ccc(-n3nc(CCCN[C@@H]4Cn5c(=O)cnc6cccc4c65)oc3=O)nc2N1 [Example 35, (S)-6-{3-[5-oxo-4-(3-oxo-3,4-dihydro-2H-pyrido[3,2-b][1,4]oxazin-6-yl)-4,5-dihydro-[1,3,4]oxadiazol-2-yl]-propylamino}-5,6-dihydro-pyrrolo[1,2,3-de]quinoxalin-3-one]
2 µg/mL (≈ 4.17 µM)	4 µg/mL (≈ 8.34 µM)	0.125 µg/mL (≈ 0.261 µM)	0.25 µg/mL (≈ 0.521 µM)	0.25 µg/mL (≈ 0.521 µM)	O=C1COc2ccc(-n3nc(CCCN[C@@H]4Cn5c(=O)ccc6ncc(F)c4c65)oc3=O)nc2N1 [Example 37, (S)-3-fluoro-4-{3-[5-oxo-4-(3-oxo-3,4-dihydro-2H-pyrido[3,2-b][1,4]oxazin-6-yl)-4,5-dihydro-[1,3,4]oxadiazol-2-yl]-propylamino}-4,5-dihydro-pyrrolo[3,2,1-de][1,5]naphthyridin-7-one]
